According to patent publication US20110263478A1, “SUR1 INHIBITORS FOR THERAPY” (priority 2008, published 2011):
Entries after “also recorded” stand apart in the source; their conditions may differ.

What was measured:
[1] = test system: NCCa-ATP channels in bEnd.3 cells; test: Patch clamp, Na azide-induced ATP depletion current in endothelial cells exposed to hypoxia; assay type: cell-based, murine; settings: 1 μM glibenclamide; hypoxic endothelial cells
Experimental: Patch clamp of endothelial cells was performed using a nystatin-perforated patch technique, to maintain the metabolic integrity of the cells. The identity of the activated channel can be assessed by measurement of the “reversal potential”, the potential at which an ion channel current reverses from inward to outward. With physiologically relevant concentrations of ions intracellularly and extracellularly (high potassium inside, high sodium outside), the reversal potential can unambiguously distinguish between a K^+ channel current such as KATP, which reverses negative to −50 mV and a non-selective cation channel current such as NCCa-ATP, which reverses near 0 mV.
Cell culture. Endothelial cell cultures from human brain microvessels, human aorta (ScienCell Research Laboratories), and murine brain microvessels (bEnd.3; ATCC), were grown at low density using media and supplements recommended by suppliers.

[2] = test system: rats with spinal cord injury (SCI); test: Rat cervical SCI model: hemorrhage / extravasated blood in cord; assay type: in vivo; settings: 200 ng/h s.q.
Experimental: Constant infusion of a low-dose of drug was used to achieve sustained occupancy of only high-affinity receptors.
(§1) SCI injury model. This study was performed in accordance with the guidelines of the Institutional Animal Care and Use Committee. Adult female Long-Evans rats (275-350 gm) were anesthetized (Ketamine, 60 mg/kg plus Xylazine, 7.5 mg/kg, i.p.). The dura at C4-5 was exposed via a left hemilaminectomy. A hemi-cervical spinal cord contusion was created using a blunt force impactor (1.3-mm impactor head driven by a 10 gm weight dropped vertically 25 mm) (Soblo sky et al., 2001; Gensel et al., 2006). After SCI, animals were given 10 ml of glucose-free normal saline s.q. Rectal temperature was maintained at ˜37° C. using a servo-controlled warming blanket. Blood gases and serum glucose 10-15 min post-SCI were: pO2, 95±6 mm Hg; pCO2, 46±3 mm Hg; pH, 7.33±0.01; glucose 258±17 mg/dl in controls and pO2, 96±7 mm Hg; pCO2, 45±2 mm Hg; pH, 7.37±0.01; glucose 242±14 mg/dl in glibenclamide-treated animals.
(§2) Drug delivery. […] During the course of the project, slightly different formulations of drug were used, with the best results obtained using stock solutions made by placing 50 mg (or 25 mg) of drug into 10 ml DMSO, and infusion solutions made by placing 400 μl (or 800 μl) stock into 4.6 ml (or 4.2 ml) unbuffered saline (0.9% NaCl) and adjusting the pH to ˜8.5 using 0.1 N NaOH.
For in vivo gene suppression of SUR1, we used oligodeoxynucleotides that were phosphorothioated at 4 distal bonds to protect against endogenous nucleases (35). Within a few min of SCI, mini-osmotic pumps (Alzet 2002, 0.5 μl/h; Durect Corporation) with jugular vein catheters were implanted that delivered either scrambled sequence ODN (Scr-ODN) (5′-[…]-3′; SEQ ID NO:1) or antisense ODN (AS-ODN) (5′-[…]-3′; SEQ ID NO:2) (Yokoshiki et al., 1999) in PBS at a rate of 1 mg/rat/24 h.
Tissue blood. Rats were sacrificed at various times after SCI (n=5-11 rats/group), were perfused with heparinized saline to remove intravascular blood, and 5-mm segments of cord encompassing the lesion were homogenized and processed as described (Choudhri et al., 1997).

[3] = test system: rats with spinal cord injury (SCI); test: Rat cervical SCI model: histology, capillaries and lesion size; assay type: in vivo
Experimental: as §1, §2
Lesion size. At 7 d post-SCI, cords were paraffin sectioned and stained with H&E. Lesion volumes were calculated from lesion areas measured on serial sections every 250 μm.
Immunohistochemistry. Cryosections were immunolabeled (Chen et al., 2003; Simard et al., 2006) using primary antibodies directed against SUR1 (Santa Cruz, C-16; 1:200; 1 h at RT, 48 h at 4° C.), SUR2 (Santa Cruz, H-80; 1:200; 1 h at RT, 48 h at 4° C.), GFAP (Sigma, C-9205; 1:500), and vimentin (Sigma, monoclonal CY3 conjugated; 1:100). Quantitative immunofluorescence was performed as described (Gerzanich et al., 2003).

[4] = test system: recombinant MMP-2 and MMP-9; test: Zymography of gelatinase activity of recombinant MMP; assay type: biochemical; settings: glibenclamide 10 μM; MMP-inhibitor II 300 nM
Experimental: In post-ischemic reperfusion of CNS tissues, catastrophic failure of capillary integrity has been attributed to the action of matrix metalloproteinases (MMP) (Wang et al., 2004).
Zymography of recombinant MMP-2 and MMP-9 (Sigma) was performed as described (Sumii and Lo, 2002).

[5] = Tail tip bleeding time in uninjured rats; assay type: in vivo, rat; settings: for effect on bleeding time: same infusion dose
Experimental: Bleeding times were measured using tail tip bleeding as described (Lorrain et al., 2003).

[6] = test system: rats with percussion-TBI; test: Percussion-TBI rats: neurobehavioral function (SFU, SVE); assay type: in vivo, rat
Text: Young adult male Long-Evans rats, 240-280 gm, were studied. Rats were anesthetized (Ketamine and Xylazine) and physiological parameters including temperature and blood gases were maintained within appropriate physiological ranges. With the head fixed in a stereotaxic frame, a 6-mm circular craniectomy was created abutting the sagittal and lambdoidal sutures. A posterior location was chosen to emphasize damage to underlying hippocampus (Vink et al., 2001; Floyd et al., 2002). […] Sham controls underwent craniectomy without percussion.
Spontaneous forelimb use (SFU) was quantified and spontaneous vertical exploration (SVE) was quantified during 7 days post-TBI. SFU measures sensorimotor asymmetry (Schallert et al., 2000) whereas SVE measures not only vestibulomotor function but also time spent in exploratory activity.

[7] = test system: rats with spinal cord injury (SCI); settings: rodent model of SCI (Simard et al., 2007); cited from earlier work
[8] = cited from earlier work
[9] = in humans; cited from earlier work

## COc1ccc(Cl)cc1C(=O)NCCc1ccc(S(=O)(=O)NC(=O)NC2CCCCC2)cc1 [glibenclamide]
[1]
  block of Na azide-induced ohmic current: blocked
[2]; 24 h post-SCI, vs vehicle
  hemorrhage in cord on inspection: visibly less hemorrhage
[2]; during the 24 h after SCI
  extravasated blood in tissue homogenates: little increase in extravasated blood
[3]; 24 h post-SCI, vs controls
  lesion, reactive gliosis and myelin (GFAP and myelin labeling): smaller lesions, less reactive gliosis and better myelin preservation
[3]; 7 d post-SCI
  lesion volume, reduction compared to controls: 3 fold
[3]; post-SCI, vs controls
  vimentin(+) capillaries in region of injury: the capillaries were elongated and appeared more normal
[4]
  gelatinase activity of recombinant MMP: the same; also recorded: not affected
[5]; n=3-5, P=0.6
  tail bleeding time: 21.5 ± 3.1 s
[5]
  effect on bleeding time: no effect
[5]; listed as Glibenclamide
  effect on bleeding time: did not affect
[6]; 1, 2 and 7 days post-TBI, vs controls
  spontaneous vertical exploration (SVE): significantly greater SVE scores
[6]; 2 days post-TBI, controls 3.5±3.5%, P=0.05
  spontaneous use of forelimb contralateral to injury: 16.5±3.4%
[7]
  reduction in lesion volume after SCI: 3 fold
[8]
  pKa: 6.3
[9]
  volume of distribution: 0.2 L/kg
